Measurements taken from US20230212225A1, “PEPTIDE COMPOSTIONS AND METHODS FOR TREATING TAUOPATHIES” (AXOLTIS PHARMA, priority 2019, published 2023).
Where a SMILES comes first, the peptide text is derived from it.

Legend:
Format in all cases: in vivo, mice
[1] = test system: Aβ25-35-induced long-term memory deficits; experiment: Step-through passive avoidance test (STPA), D09-D10
[2] = test system: pTau (phosphorylated Tau protein); experiment: Brain biomarker assessment, hippocampus ELISA, D11
Method: (§1) In order to evaluate potential biological effects of NX210 or NX218 treatments on pathological biomarkers, mice from the Sc.Aβ / Vhc (n=6), Aβ25-35 / Vhc (n=6), Aβ25-35 / NX210 IP 2 mg/kg (n=5) and Aβ25-35 / NX218 IP 2 mg/kg (n=5) groups were sacrificed under anesthesia ten days after ICV injection of Aβ25-35 peptide (D11) and daily compound administrations (once a day).
(§2) For each mouse, the brain was quickly removed and dissected out on an ice-cold metal plate into 2 hemi-hippocampi, 2 hemi-frontal cortices and the rest of brain. Straight after each collection, brain samples were frozen on dry ice and stored at -80° C. After thawing, brain structures were dissociated in 50 mM Tris-150 mM NaCl buffer, pH 7.5, and sonicated for 20 sec. After centrifugation, supernatants containing proteins were used for ELISA assays according to the manufacturer’s instructions (see below). • For Aβ1-42 (amyloid-beta 1-42), use of the left hippocampus, ELISA kit from Cloud-Clone Corp., ref: CEA946Mu; batch: L190107385 • For pTau (phosphorylated Tau protein), use of the left hippocampus, ELISA kit from Fisher Scientific, ref: 10591255; batch: 187860001
(§3) For all assays, the absorbance was read at 450 nm and each sample concentration was calculated by using a specific standard curve. All samples were run in duplicate and the average of these duplicates was used for calculations.

[3] = test system: Aβ1-42 (amyloid-beta 1-42); experiment: Brain biomarker assessment, hippocampus ELISA, D11
Method: as §1, §2, §3

[4] = IP 2 mg/kg every other day (1/2d)
[5] = IP 3.75 mg/kg every other day (1/2d)
[6] = 2 mg/kg once a day for ten days
[7] = IP 2 mg/kg once a day, left hippocampus, D11

N=C(N)NCCC[C@H](NC(=O)[C@H](CO)NC(=O)[C@H](CS)NC(=O)[C@H](CO)NC(=O)[C@H](CO)NC(=O)[C@H](Cc1c[nH]c2ccccc12)NC(=O)CNC(=O)[C@H](CO)NC(=O)[C@@H](N)Cc1c[nH]c2ccccc12)C(=O)N[C@@H](CO)C(=O)N[C@@H](CS)C(=O)NCC(=O)O [NX210, W-S-G-W-S-S-C-S-R-S-C-G] (H-WSGWSSCSRSCG-OH; N-terminus and C-terminus assumed)
EL % (Sc.Aβ / Vhc = 100) ([1]; IP 0.1 mg/kg once a day): 449%
EL Mean, escape latency, retention session ([1]; IP 0.1 mg/kg once a day): 89.42 s
STL % (Sc.Aβ / Vhc = 100) ([1]; IP 0.1 mg/kg once a day): 42%
STL Mean, step-through latency, retention session ([1]; IP 0.1 mg/kg once a day): 118.92 s
EL % (Sc.Aβ / Vhc = 100) ([1]; IP 1 mg/kg once a day): 267%
EL Mean, escape latency, retention session ([1]; IP 1 mg/kg once a day): 53.08 s
STL % (Sc.Aβ / Vhc = 100) ([1]; IP 1 mg/kg once a day): 63%
STL Mean, step-through latency, retention session ([1]; IP 1 mg/kg once a day): 177.92 s
EL % (Sc.Aβ / Vhc = 100) [1, 4]: 110%
EL Mean, escape latency, retention session [1, 4]: 22.00 s
STL % (Sc.Aβ / Vhc = 100) [1, 4]: 93%
STL Mean, step-through latency, retention session [1, 4]: 263.33 s
EL % (Sc.Aβ / Vhc = 100) ([1]; IP 2 mg/kg once a day): 156%
EL Mean, escape latency, retention session ([1]; IP 2 mg/kg once a day): 31.17 s
STL % (Sc.Aβ / Vhc = 100) ([1]; IP 2 mg/kg once a day): 88%
STL Mean, step-through latency, retention session ([1]; IP 2 mg/kg once a day): 248.33 s
EL % (Sc.Aβ / Vhc = 100) [1, 5]: 119%
EL Mean, escape latency, retention session [1, 5]: 23.75 s
STL % (Sc.Aβ / Vhc = 100) [1, 5]: 94%
STL Mean, step-through latency, retention session [1, 5]: 264.75 s
EL % (Sc.Aβ / Vhc = 100) ([1]; IP 3.75 mg/kg once a day): 139%
EL Mean, escape latency, retention session ([1]; IP 3.75 mg/kg once a day): 27.67 s
STL % (Sc.Aβ / Vhc = 100) ([1]; IP 3.75 mg/kg once a day): 90%
STL Mean, step-through latency, retention session ([1]; IP 3.75 mg/kg once a day): 255.50 s
effect on contextual long-term memory deficits (STL and EL), in words ([1]; NX210 2 and 3.75 mg/kg, NX218 1, 2 and 3.75 mg/kg, once a day or every other day): fully rescued
effect on contextual long-term memory deficits (STL and EL) at subactive dose, in words ([1]; once a day, NX210 0.1 mg/kg, NX218 0.1 mg/kg, DPZ 0.25 mg/kg): do not impede
effect on brain pTau vs Aβ25-35 / Vhc group, in words [2, 6]: significantly decreased
pTau %, percentage of the control group (Sc.Aβ / Vhc) [2, 7]: 151%
pTau Mean [2, 7]: 90.21
effect on brain Aβ1-42 vs Aβ25-35 / Vhc group, in words [3, 6]: significantly decreased
Aβ1-42 %, percentage of the control group (Sc.Aβ / Vhc) [3, 7]: 107%
Aβ1-42 Mean [3, 7]: 24.25
